The source of these data is patent US9012446B2, “Amino-oxazines and amino-dihydrothiazine compounds as beta-secretase modulators and methods of use” (Amgen Inc., priority 2010, dated 2015).

Like-named read-outs stand apart in the source and are kept apart here.

In one assay the target is BACE (Homo sapiens, UniProt P56817). Kind of assay: In vitro enzymatic BACE FRET assay. The class given is biochemical. To be noted: average IC50, enzyme assay; read-out: BACE 1 FRET assay. The method, then:
In Vitro Enzymatic BACE FRET (Fluorescence Resonance Energy Transfer) Assay (Enzyme Assay Data in the Example Table I) The assay buffer used in this screen is 0.05 M acetate, pH 4.2, 10% DMSO final, 100 uM genapol (which is a nonionic detergent, below its Critical Micelle Concentration). The beta secretase enzyme (0.2 nM) is pre-incubated for one hour with inhibitors, typically in about 1 uL of DMSO according to a serial dilution, are added thereto. This assay is effectively started by the addition of FRET substrate (50 nM) and the combination is incubated for one hour. The FRET assay is terminated with by addition of Tris buffer, which raises the pH to neutrality, and the fluorescence is determined. The FRET substrate is a peptide with commercially available fluorophore and quencher, on opposite sides of the BACE cleavage site. Proteolytic cleavage of the FRET substrate releases quenching of fluorescence (excitation 488 nm and emission […]).

Another assay concerns Aβ40. Kind of assay: In vitro BACE cell-based assay (Aβ40 sandwich ELISA, cells stably expressing APP). The note with it: Homo sapiens. On the procedure: In Vitro BACE Cell-Based Assay […] Cells stably expressing Amyloid Precursor Protein (APP) were plated at a density of 40K cells/well in 96 well plates (Costar). The cells were cultivated for 24 hours at 37° C. and 5% CO2 in DMEM supplemented with 10% FBS. The test compounds were then added to cells in 10-point dose response concentrations with the starting concentration being either 100 μM or 10 μM. The compounds were diluted from stock solutions in DMSO and the final DMSO concentration of the test compounds on cells was 0.1%. […] The IC50 of the compound was calculated from the percent of control or percent inhibition of Aβ40 as a function of the concentration of the test compound. The sandwich ELISA to detect Aβ40 was performed in 96 well microtiter plates, which were pre-treated with goat anti-rabbit IgG (Pierce). […] The optimal concentration for the pAb40 antibody was 3 μg/ml in Superblock/TBS (Pierce) that was supplemented with 0.05% Tween 20 (Sigma). […] Cellular supernatants were incubated with the capture antibody for 3 h at 4° C., followed by 3 wash steps in TBS-tween (0.05%). The detecting antibody incubation was for 2 h at 4° C., again followed by the wash steps as described previously. The final readout of the ELISA is Time-Resolved Fluorescence (counts per minute) using Delfia reagents Streptavidin-Europium and Enhancement solutions (Perkin Elmer) and the Victor 2 multilabel counter (Perkin Elmer).
In general terms: ELISA stands for enzyme-linked immunosorbent assay.

Where [1] appears, read: HEK293, average IC50, read-out: HEK cell assay.
Setting [2] is: HEK293, average IC50, cell assay, HEK cells.

BACE, sequence (P56817 46-501, species assumed): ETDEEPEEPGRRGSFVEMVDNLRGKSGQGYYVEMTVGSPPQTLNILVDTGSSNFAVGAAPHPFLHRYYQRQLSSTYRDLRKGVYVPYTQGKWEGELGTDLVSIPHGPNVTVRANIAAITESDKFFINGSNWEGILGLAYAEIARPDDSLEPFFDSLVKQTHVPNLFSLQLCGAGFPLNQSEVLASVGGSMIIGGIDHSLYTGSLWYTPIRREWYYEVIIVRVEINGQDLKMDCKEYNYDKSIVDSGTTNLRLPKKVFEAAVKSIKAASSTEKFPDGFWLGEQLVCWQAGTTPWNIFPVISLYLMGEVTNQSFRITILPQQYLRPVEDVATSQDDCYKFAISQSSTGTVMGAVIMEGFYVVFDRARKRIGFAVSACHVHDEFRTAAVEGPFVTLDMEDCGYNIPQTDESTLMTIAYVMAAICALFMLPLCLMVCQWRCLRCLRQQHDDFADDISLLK

For `N#Cc1cccc(-c2ccc3c(c2)[C@@]2(CCOC(N)=N2)c2cc(C4=CCOCC4)nc(F)c2O3)c1` [compound 234], the IC50 on BACE and in the assay with Aβ40 (setting [1]) was 0.7 nM each time.
As to `CC1(C#Cc2cnc3c(c2)[C@]2(COCC(N)=N2)c2cc(-c4cccnc4F)ccc2O3)COC1` [compound 87], the IC50 on BACE stood at 2 nM; in the assay with Aβ40 (setting [2]) it was 1.3 nM.
Regarding `COc1cc(F)c2c(c1)[C@]1(CCSC(N)=N1)c1cc(-c3cccnc3F)ccc1O2` [compound 187], the IC50 on BACE is 29.9 nM; with Aβ40 (setting [1]) it was 159 nM.
For `NC1=N[C@]2(CCO1)c1cc(-c3cncc(F)c3)ccc1Oc1c2cc(C2=CCCOC2)nc1F` [compound 232], in that order: 793 nM and 164 nM.
In the same order, the values of `NC1=N[C@@]2(CCS1)c1cc(-c3cccnc3F)ccc1Oc1c(F)cc(C3=CCOCC3)cc12` [compound 200] are 2.7 nM and 12.3 nM.
For the molecule `NC1=NC2(CCO1)c1cc(-c3cccnc3)ccc1Oc1cnc(-c3cccnc3)cc12` (centres unmarked) [compound 150, 3,7-di-3-pyridinyl-5′,6′-dihydrospiro[chromeno[2,3-c]pyridine-5,4′-[1,3]oxazin]-2′-amine], the IC50 was determined as 13 nM on BACE and 10.3 nM in the assay on Aβ40 (setting [2]).
Take `COc1cc2c(cn1)Oc1ccc(-c3cccnc3)cc1[C@@]21COCC(N)=N1` [compound 124]: the IC50 amounted to 6.8 nM on BACE and 5.1 nM with Aβ40 (setting [2]).
For `CC1(COc2cc(F)c3c(c2)[C@]2(CCOC(N)=N2)c2cc(-c4cccnc4F)ccc2O3)COC1` [compound 180], the IC50 on BACE was 2.3 nM; in the assay with Aβ40 (setting [1]), 3.2 nM.
With `NC1=N[C@@]2(CCO1)c1cc(-c3cncc(F)c3)ccc1Oc1c2cc(C2=CCOCC2)nc1F` [compound 228], the IC50 turned out to be 0.3 nM at BACE and 0.7 nM with Aβ40 (setting [1]).
For `NC1=N[C@@]2(COC1)c1cc(O)ccc1Oc1c(F)cc(-c3ccnc(F)c3)cc12` [Example 39, (S)-5-amino-4′-fluoro-2′-(2-fluoropyridin-4-yl)-2,6-dihydrospiro[[1,4]oxazine-3,9′-xanthen]-7′-ol], the IC50 is 368 nM at BACE and 2590 nM in the assay on Aβ40 (setting [2]).
Regarding `NC1=N[C@@]2(CCO1)c1cc(-c3cncc(F)c3)ccc1Oc1cnc(C3=CCOCC3)cc12` [compound 143], the IC50 is 5.7 nM at BACE and 3.7 nM with Aβ40 (setting [2]).
In the same order, the values of `CC(C)(C)C#Cc1cnc2c(c1)[C@@]1(COCC(N)=N1)c1cc(-c3cncnc3)c(F)cc1O2` [compound 97] are 419 nM and 273 nM.
With `COc1cc2c(cn1)Oc1ccc(-c3ccc(F)c(F)c3)cc1[C@@]21COCC(N)=N1` [Example 50, (S)-7-(3,4-difluorophenyl)-3-methoxy-2′,6′-dihydrospiro[chromeno[2,3-c]pyridine-5,3′-[1,4]oxazin]-5′-amine], the IC50 at BACE came out at 30.9 nM; with Aβ40 (setting [1]), 106 nM.
For the molecule `NC1=N[C@]2(CCO1)c1cc(-c3cccnc3F)ccc1Oc1c(F)cc(-c3ccncc3)cc12` [compound 165], the IC50 came out at 553 nM on BACE and 248 nM in the assay on Aβ40 (setting [1]).
Turning to `NC1=N[C@@]2(CCO1)c1cc(-c3cccnc3F)ccc1Oc1c2cc(C2=CCOCC2)nc1F` [compound 108], the IC50 on BACE and in the assay with Aβ40 (setting [2]) was 0.6 nM each time.
Regarding `NC1=N[C@@]2(CCO1)c1cc(-c3cncc(F)c3)ccc1Oc1cnc(-c3cccnc3)cc12` [compound 140], the IC50 was 10.8 nM on BACE and 3.4 nM in the assay with Aβ40 (setting [2]).
As for `NC1=N[C@@]2(COC1)c1cc(-c3cccnc3)ccc1Oc1c2cc(C2=CCCOC2)nc1F` [compound 246], the IC50 is 0.4 nM on BACE and 0.1 nM in the assay on Aβ40 (setting [1]).
Turning to `CC1(COc2cc(F)c3c(c2)[C@@]2(CCSC(N)=N2)c2cc(-c4cccnc4F)ccc2O3)COC1` [compound 198], the IC50 on BACE was determined as 563 nM; in the assay on Aβ40 (setting [1]) it was 634 nM.
For the molecule `NC1=N[C@]2(CCO1)c1cc(-c3cccnc3F)ccc1Oc1cnc(-c3cncc(F)c3)cc12` [compound 152], the IC50 came to 238 nM on BACE and 108 nM in the assay on Aβ40 (setting [2]).
In the same order, the values of `NC1=N[C@@]2(COC1)c1cc(-c3cccnc3F)ccc1Oc1cnc([C@H]3CCCOC3)cc12` [compound 80] are 3.9 nM and 5.8 nM.
As for `NC1=N[C@@]2(COC1)c1cc(-c3cccnc3F)ccc1Oc1c2cc(Cl)nc1F` [compound 242], the figures for the IC50 on BACE and with Aβ40 (setting [1]) were 1.2 nM and 16 nM, respectively.
For `CC(C)C#Cc1cnc2c(c1)[C@]1(COCC(N)=N1)c1cc(-c3cccnc3F)ccc1O2` [compound 213], in that order: 0.6 nM and 1 nM.
For `NC1=N[C@@]2(CO[C@H]1C1CCCCC1)c1cc(-c3cccnc3F)ccc1Oc1cnc(Cl)cc12` (racemic) [Example 56A, (3′S,6′S)-3-chloro-6′-cyclohexyl-7-(2-fluoropyridin-3-yl)-2′,6′-dihydrospiro[chromeno[2,3-c]pyridine-5,3′-[1,4]oxazin]-5′-amine], in that order: 30.7 nM and 138 nM.
With `NC1=N[C@@]2(COC1)c1cc(-c3cccnc3F)ccc1Oc1c(F)cc(N3CCOCC3)cc12` [Example 35A, (S)-4′-fluoro-7′-(2-fluoropyridin-3-yl)-2′-morpholino-2,6-dihydrospiro[[1,4]oxazine-3,9′-xanthen]-5-amine], the IC50 at BACE was 0.5 nM; in the assay on Aβ40 (setting [2]), 1.9 nM.
On to `CC1(COc2cc(F)c3c(c2)[C@]2(CCSC(N)=N2)c2cc(-c4cccnc4F)ccc2O3)COC1` [compound 197], for which the IC50 on BACE was 2.5 nM; in the assay with Aβ40 (setting [1]), 4.8 nM.
Consider `CC(C)COc1cc2c(cn1)Oc1ccc(-c3cccnc3F)cc1[C@@]21COCC(N)=N1` [compound 255], for which the IC50 at BACE was found to be 0.5 nM; in the assay with Aβ40 (setting [1]), 1 nM.
In the same order, the values of `COc1nc(-c2cccnc2)cc2c1Oc1ccc(-c3cccnc3F)cc1C21CCOC(N)=N1` (centres unmarked) [compound 221] are 49.8 nM and 119 nM.
On to `NC1=N[C@]2(CCO1)c1cc(-c3cccnc3F)ccc1Oc1c2cc(-c2cccnc2F)nc1F` [compound 104], for which the IC50 on BACE was 1740 nM; in the assay with Aβ40 (setting [2]), 1900 nM.
In the same order, the values of `NC1=NC2(CCO1)c1cc(-c3cccnc3F)ccc1Oc1c2cc(-c2cccnc2F)nc1F` (centres unmarked) [compound 101] are 14.6 nM and 45.9 nM.
For `NC1=N[C@@]2(COC1)c1cc(-c3cc(Cl)ccc3F)ccc1Oc1ncc(N3CC4CCC(C3)O4)cc12` [compound 94], in that order: 1.3 nM and 1.3 nM.
As to `NC1=N[C@]2(CCS1)c1cc(-c3cccnc3F)ccc1Oc1c(F)cc(C3=CCCOC3)cc12` [compound 190], the IC50 was 462 nM at BACE and 434 nM in the assay on Aβ40 (setting [1]).
For `CC(C)(C)C#Cc1ccc2c(c1)[C@@]1(COCC(N)=N1)c1cc(C#CC(C)(C)C)cnc1O2` [Example 53, (S)-3,7-bis(3,3-dimethylbut-1-ynyl)-2′,6′-dihydrospiro[chromeno[2,3-b]pyridine-5,3′-[1,4]oxazin]-5′-amine], in that order: 5.4 nM and 25.1 nM.
`COc1cc(F)c2c(c1)[C@]1(COCC(N)=N1)c1cc(-c3cccnc3F)ccc1O2` [Example 48, (S)-4′-fluoro-7′-(2-fluoropyridin-3-yl)-2′-methoxy-2,6-dihydrospiro[[1,4]oxazine-3,9′-xanthen]-5-amine]: the IC50 is 1.5 nM at BACE and 15.6 nM in the assay with Aβ40 (setting [2]).
In the case of `NC1=N[C@@]2(COC1)c1cc(-c3cc(F)ccc3F)ccc1Oc1ncc(C3=CCOCC3)cc12` [compound 218], the IC50 worked out at 1.3 nM at BACE and 2.6 nM in the assay on Aβ40 (setting [1]).
In the same order, the values of `CC1(COc2cc(F)c3c(c2)[C@]2(COCC(N)=N2)c2cc(N4CCC(F)(F)CC4)ccc2O3)COC1` [Example 46, (S)-7′-(4,4-difluoropiperidin-1-yl)-4′-fluoro-2′-((3-methyloxetan-3-yl)methoxy)-2,6-dihydrospiro[[1,4]oxazine-3,9′-xanthen]-5-amine] are 9.4 nM and 32.1 nM.
`NC1=N[C@@]2(COC1)c1cc(-c3cccnc3F)ccc1Oc1ncc(N3CC[C@@H](F)C3)cc12` [Example 68, (S)-7-(2-fluoropyridin-3-yl)-3-((R)-3-fluoropyrrolidin-1-yl)-2′,6′-dihydrospiro[chromeno[2,3-b]pyridine-5,3′-[1,4]oxazin]-5′-amine]: the values for the IC50 at BACE and in the assay on Aβ40 (setting [2]) were 1.4 nM and 1.2 nM, respectively.
Consider `N#Cc1cccc(-c2ccc3c(c2)[C@]2(CCOC(N)=N2)c2cc(C4=CCCOC4)nc(F)c2O3)c1` [compound 224], for which the figures for the IC50 at BACE and in the assay on Aβ40 (setting [1]) were 541 nM and 982 nM, respectively.
